Source: ChEMBL document CHEMBL1201862, “PubChem BioAssay data set” (2004)
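Method: 48-hour compound exposure of cells in 96-well plates, five concentrations, linear interpolation of endpoints. GI50 marks 50% less growth.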 Activity calls are given as the source filed them. Rule as the data show it: active = GI50 up to about 1.1 µM and inactive = higher.

Assays:
Assay in all cases: inhibition of tumour cell growth, NCI panel, 48 h
HT-29 = tested on: HT-29
SK-MEL-28 = tested on: SK-MEL-28
KM12 = tested on: KM12
HCC 2998 = tested on: HCC 2998
UACC-62 = tested on: UACC-62
DU-145 = tested on: DU-145
EKVX = tested on: EKVX
U-251 = tested on: U-251
SN12C = tested on: SN12C
RXF 393 = tested on: RXF 393
SF-539 = tested on: SF-539
OVCAR-4 = tested on: OVCAR-4
HOP-92 = tested on: HOP-92
RPMI-8226 = tested on: RPMI-8226
IGROV-1 = tested on: IGROV-1
M14 = tested on: M14
MDA-MB-231 = tested on: MDA-MB-231
NCI-H23 = tested on: NCI-H23
786-0 = tested on: 786-0
NCI-H522 = tested on: NCI-H522

Measured: GI50

Sc1ncc(-c2cncc(-c3cnc(S)nc3)n2)cn1
inactive: HT-29 > 100 µM | SK-MEL-28 > 100 µM | KM12 > 100 µM | HCC 2998 > 100 µM | UACC-62 > 100 µM | DU-145 > 100 µM | EKVX > 100 µM | U-251 > 100 µM | SN12C > 100 µM | RXF 393 > 100 µM | SF-539 > 100 µM | OVCAR-4 > 100 µM | HOP-92 > 100 µM | RPMI-8226 > 100 µM | IGROV-1 > 100 µM | M14 > 100 µM | MDA-MB-231 > 100 µM | NCI-H23 > 100 µM | 786-0 > 100 µM | NCI-H522 > 100 µM

CCOC(=O)C(=C(SC)SC)c1nn2c(=O)cc(C)nc2s1
inactive: HT-29 20.9 µM | SK-MEL-28 17.1 µM | KM12 33 µM | HCC 2998 18.8 µM | UACC-62 21 µM | DU-145 16.5 µM | EKVX 24.3 µM | U-251 23.6 µM | SN12C 33.1 µM | RXF 393 22.6 µM | SF-539 18.2 µM | OVCAR-4 28.5 µM | HOP-92 16.9 µM | RPMI-8226 17.3 µM | IGROV-1 20.9 µM | M14 15.9 µM | MDA-MB-231 27.9 µM | NCI-H23 32.9 µM | 786-0 19.1 µM | NCI-H522 23 µM

CCCCC1Nc2ccccc2-c2ccnc(Cl)c21 (stereo not given)
inactive: HT-29 10.8 µM | SK-MEL-28 17.8 µM | KM12 20.7 µM | HCC 2998 38.7 µM | UACC-62 13.7 µM | DU-145 20.5 µM | EKVX 24.2 µM | U-251 21.4 µM | SN12C 20.8 µM | RXF 393 18.5 µM | SF-539 19.2 µM | OVCAR-4 20.1 µM | HOP-92 14.2 µM | RPMI-8226 12.2 µM | IGROV-1 19 µM | M14 19.1 µM | MDA-MB-231 17.1 µM | NCI-H23 16.5 µM | 786-0 19.5 µM | NCI-H522 11.7 µM

CC1(/C=C/CCSc2ccccc2)CC(=O)C2CC1C2(C)C (stereo not given)
inactive: HT-29 12.4 µM | SK-MEL-28 25.1 µM | KM12 13.2 µM | HCC 2998 12.5 µM | UACC-62 8.04 µM | DU-145 44.3 µM | EKVX 22.1 µM | U-251 14.9 µM | SN12C 19.1 µM | RXF 393 29.3 µM | SF-539 7.96 µM | OVCAR-4 38.5 µM | HOP-92 17.9 µM | RPMI-8226 3.79 µM | IGROV-1 17.8 µM | M14 23.8 µM | MDA-MB-231 37.4 µM | NCI-H23 12.1 µM | 786-0 20.2 µM | NCI-H522 13 µM

C#CCC(O)c1ccc(OC)c(OCc2ccccc2)c1 (stereo not given)
inactive: HT-29 > 100 µM | SK-MEL-28 > 100 µM | KM12 > 100 µM | HCC 2998 > 100 µM | UACC-62 > 100 µM | DU-145 > 100 µM | EKVX 56.2 µM | U-251 > 100 µM | SN12C > 100 µM | RXF 393 > 100 µM | SF-539 > 100 µM | OVCAR-4 > 100 µM | HOP-92 > 100 µM | RPMI-8226 > 100 µM | IGROV-1 > 100 µM | M14 > 100 µM | MDA-MB-231 59.2 µM | NCI-H23 > 100 µM | 786-0 > 100 µM | NCI-H522 > 100 µM

C=C1C(=O)O[C@@H]2/C=C(\C)CC/C=C(/COC(C)=O)C[C@@H](OC(C)=O)[C@@H]12
inactive: HT-29 4.24 µM | SK-MEL-28 8.99 µM | KM12 14.8 µM | HCC 2998 16.5 µM | UACC-62 12.4 µM | DU-145 6.79 µM | EKVX 11.1 µM | U-251 18.7 µM | SN12C 11.3 µM | RXF 393 9.38 µM | SF-539 16.2 µM | OVCAR-4 20.2 µM | HOP-92 7.73 µM | RPMI-8226 3.39 µM | IGROV-1 13.4 µM | M14 12.6 µM | MDA-MB-231 14.9 µM | NCI-H23 13.6 µM | 786-0 5.18 µM | NCI-H522 1.16 µM

COc1cccc(/C(CC(O)(C(F)(F)F)C(F)(F)F)=N\N(C)C)c1
inactive: HT-29 > 100 µM | SK-MEL-28 > 100 µM | KM12 > 100 µM | HCC 2998 > 100 µM | UACC-62 > 100 µM | DU-145 > 100 µM | EKVX > 100 µM | U-251 > 100 µM | SN12C > 100 µM | RXF 393 > 100 µM | SF-539 > 100 µM | OVCAR-4 > 100 µM | HOP-92 > 100 µM | RPMI-8226 > 100 µM | IGROV-1 > 100 µM | M14 > 100 µM | MDA-MB-231 > 100 µM | NCI-H23 > 100 µM | 786-0 > 100 µM | NCI-H522 > 100 µM
